# Several values for one entry are separate records, joined by “and”; a condition that tells them apart may be missing. Equal values may be shown once. Residues, ends and D or L forms follow the SMILES beside them. *: point of attachment. NHPh = c1ccc(N*)cc1
# Test system: C57BL/6 mice
# Assay: Capsaicin-induced mechanical hypersensitivity (von Frey)
# Assay type: in vivo, mouse
# Set-up: LVF Mean / HVF Mean / MECHANICAL LVF / MECHANICAL HVF: unit not given here
# Description: FGF13 is a neuronal gene ubiquitously transcribed in DRG neuronal subtypes ([43]–[46]). To investigate neuronal subtype enrichment of the FGF13 transcript, we examined a gene panel including FGF13, SCN9A, and several marker genes in mouse single-cell transcriptomic data (Supplemental Figure 10) ([43]–[46]). […] Critically, putative silent nociceptors marked by somatostatin (SST), and the nicotinic cholinergic receptor α-3 subunit (CHRNA3) contribute to development of inflammatory mechanical hyperalgesia ([47]). […] We next determined if PW164 modulation of the FGF13/Nav1.7 complex could suppress nociceptive behaviors in WT mice. We tested whether intraplantar (i.pl.) injection (5 μL) of PW164 altered hind paw withdrawal in response to low or high intensity von Frey filament (LVF or HVF, respectively) mechanical stimulation (Figure 3A). […] Next, we evaluated PW164’s effect on mechanical and thermal hindpaw sensitivity in capsaicin-induced nociceptive hypersensitivity models. […] Next, we performed in vivo target validation in WT mice that received an intrathecal (i.t.) injection in L5 of AAV2-shFGF13 (6 μL, viral titers 1 × 10^12 vector genomes (vg)/mL); a control group received an equal number of AAV2-shCTRL particles (Figure 3C).
# Experiments were performed on 6- to 12-week-old male C57BL/6 mice (The Jackson Laboratory, Bar Harbor, ME) housed in the AAALAC-accredited facility at the University of Texas Medical Branch. Mice were group-housed with up to 5 mice per cage on a 12-to-12-hour light–dark cycle and had access to water and food ad libitum. All protocols were approved by the Institutional Animal Care and Use Committee (IACUC) at the University of Texas Medical Branch and in accordance with the National Institutes of Health (NIH) guidelines.
# PW164 and ZL192 were dissolved in DMSO and saline in a ratio of 1:10. 0.1% capsaicin (10% ethanol, 10% Tween-20 in saline; Sigma-Aldrich). All the compounds were injected at the center of the hind paw. The control group received a DMSO-saline mixture. […]
# Bupivacaine was prepared from a 1:2 dilution with sterile 0.9% saline and locally injected in the center of the paw at 7 mg/ml.
# AAV2 viral particles packaged by the University of North Carolina Gene Therapy Core Facility (viral titer ranging […]
# Before intrathecal injections in the lumbar region, mice were maintained in an anesthetizing box with 2% isoflurane to induce unconsciousness. Six microliters of viral vector were gently injected into the CSF through a 30-gauge needle with a Hamilton syringe in the lumbar area between vertebrae L4 and L5 by gently gripping the iliac crest of the mouse and inserting the needle with an angle of 45°. The correct procedure was confirmed by the mouse’s tail reflexiv e flick.
# Assessment of mechanical sensitivity
# Mechanical sensitivity was assessed using von Frey filaments (VFF 0.1g and 1.0 g force) in mice that were either naïve or received intraplantar (i.p.) injection of capsaicin. VFFs were applied at the injection site (capsaicin or […]
# [1] = Zl 0192 .06mg/ml 5ul site 2 i.d(after cap 0.5h ), Male GFP mouse site 1, hour 0
# [2] = Zl 0192 .06mg/ml 5ul site 2 i.d(after cap 0.5h ), Male GFP mouse site 1, hour 0.5
# [3] = Zl 0192 .06mg/ml 5ul site 2 i.d(after cap 0.5h ), Male GFP mouse site 1, hour 1
# [4] = Zl 0192 .06mg/ml 5ul site 2 i.d(after cap 0.5h ), Male GFP mouse site 1, hour 1.5
# [5] = Zl 0192 .06mg/ml 5ul site 2 i.d(after cap 0.5h ), Male GFP mouse site 1, hour 2
# [6] = Zl 0192 .06mg/ml 5ul site 2 i.d(after cap 0.5h ), Male GFP mouse site 1, hour 3
# [7] = Zl 0192 .06mg/ml 5ul site 2 i.d(after cap 0.5h ), Male GFP mouse site 2, hour 0
# [8] = Zl 0192 .06mg/ml 5ul site 2 i.d(after cap 0.5h ), Male GFP mouse site 2, hour 0.5
# [9] = Zl 0192 .06mg/ml 5ul site 2 i.d(after cap 0.5h ), Male GFP mouse site 2, hour 1
# [10] = Zl 0192 .06mg/ml 5ul site 2 i.d(after cap 0.5h ), Male GFP mouse site 2, hour 1.5
# [11] = Zl 0192 .06mg/ml 5ul site 2 i.d(after cap 0.5h ), Male GFP mouse site 2, hour 2
# [12] = Zl 0192 .06mg/ml 5ul site 2 i.d(after cap 0.5h ), Male GFP mouse site 2, hour 3
# [13] = Zl 0192 .06mg/ml 5ul site 2 i.d., Male GFP mouse site 1, hour 0
# [14] = Zl 0192 .06mg/ml 5ul site 2 i.d., Male GFP mouse site 1, hour 0.5
# [15] = Zl 0192 .06mg/ml 5ul site 2 i.d., Male GFP mouse site 1, hour 1
# [16] = Zl 0192 .06mg/ml 5ul site 2 i.d., Male GFP mouse site 1, hour 1.5
# [17] = Zl 0192 .06mg/ml 5ul site 2 i.d., Male GFP mouse site 1, hour 2
# [18] = Zl 0192 .06mg/ml 5ul site 2 i.d., Male GFP mouse site 1, hour 3
# [19] = Zl 0192 .06mg/ml 5ul site 2 i.d., Male GFP mouse site 2, hour 0
# [20] = Zl 0192 .06mg/ml 5ul site 2 i.d., Male GFP mouse site 2, hour 0.5
# [21] = Zl 0192 .06mg/ml 5ul site 2 i.d., Male GFP mouse site 2, hour 1
# [22] = Zl 0192 .06mg/ml 5ul site 2 i.d., Male GFP mouse site 2, hour 1.5
# [23] = Zl 0192 .06mg/ml 5ul site 2 i.d., Male GFP mouse site 2, hour 2
# [24] = Zl 0192 .06mg/ml 5ul site 2 i.d., Male GFP mouse site 2, hour 3
# [25] = Zl 0192 .18mg/ml 5ul site 2 i.d(after cap 0.5h ), Male GFP mouse site 1, hour 0
# [26] = Zl 0192 .18mg/ml 5ul site 2 i.d(after cap 0.5h ), Male GFP mouse site 1, hour 0.5
# [27] = Zl 0192 .18mg/ml 5ul site 2 i.d(after cap 0.5h ), Male GFP mouse site 1, hour 1
# [28] = Zl 0192 .18mg/ml 5ul site 2 i.d(after cap 0.5h ), Male GFP mouse site 1, hour 1.5
# [29] = Zl 0192 .18mg/ml 5ul site 2 i.d(after cap 0.5h ), Male GFP mouse site 1, hour 2
# [30] = Zl 0192 .18mg/ml 5ul site 2 i.d(after cap 0.5h ), Male GFP mouse site 1, hour 3
# [31] = Zl 0192 .18mg/ml 5ul site 2 i.d(after cap 0.5h ), Male GFP mouse site 2, hour 0
# [32] = Zl 0192 .18mg/ml 5ul site 2 i.d(after cap 0.5h ), Male GFP mouse site 2, hour 0.5
# [33] = Zl 0192 .18mg/ml 5ul site 2 i.d(after cap 0.5h ), Male GFP mouse site 2, hour 1
# [34] = Zl 0192 .18mg/ml 5ul site 2 i.d(after cap 0.5h ), Male GFP mouse site 2, hour 1.5
# [35] = Zl 0192 .18mg/ml 5ul site 2 i.d(after cap 0.5h ), Male GFP mouse site 2, hour 2
# [36] = Zl 0192 .18mg/ml 5ul site 2 i.d(after cap 0.5h ), Male GFP mouse site 2, hour 3
# [37] = Zl 0192 .18mg/ml 5ul site 2 i.d., Male GFP mouse site 1, hour 0
# [38] = Zl 0192 .18mg/ml 5ul site 2 i.d., Male GFP mouse site 1, hour 0.5
# [39] = Zl 0192 .18mg/ml 5ul site 2 i.d., Male GFP mouse site 1, hour 1
# [40] = Zl 0192 .18mg/ml 5ul site 2 i.d., Male GFP mouse site 1, hour 1.5
# [41] = Zl 0192 .18mg/ml 5ul site 2 i.d., Male GFP mouse site 1, hour 2
# [42] = Zl 0192 .18mg/ml 5ul site 2 i.d., Male GFP mouse site 1, hour 3
# [43] = Zl 0192 .18mg/ml 5ul site 2 i.d., Male GFP mouse site 2, hour 0
# [44] = Zl 0192 .18mg/ml 5ul site 2 i.d., Male GFP mouse site 2, hour 0.5
# [45] = Zl 0192 .18mg/ml 5ul site 2 i.d., Male GFP mouse site 2, hour 1
# [46] = Zl 0192 .18mg/ml 5ul site 2 i.d., Male GFP mouse site 2, hour 1.5
# [47] = Zl 0192 .18mg/ml 5ul site 2 i.d., Male GFP mouse site 2, hour 2
# [48] = Zl 0192 .18mg/ml 5ul site 2 i.d., Male GFP mouse site 2, hour 3
smiles,measurement,setting,value
CC(=O)N[C@@H](Cc1ccccc1)C(=O)N[C@@H](CC(C)C)C(=O)N1CCC[C@H]1C(=O)N[C@@H](CCCCN)C(=O)Nc1ccccc1 [Zl 0192] (Ac-FLPK-NHPh),MECHANICAL HVF,[1],50
same,MECHANICAL LVF,[1],0
same,MECHANICAL HVF,[2],100
same,MECHANICAL LVF,[2],70
same,MECHANICAL HVF,[3],100
same,MECHANICAL LVF,[3],70
same,MECHANICAL HVF,[4],100
same,MECHANICAL LVF,[4],80
same,MECHANICAL HVF,[5],100
same,MECHANICAL LVF,[5],80 and 70
same,MECHANICAL HVF,[6],100
same,MECHANICAL LVF,[6],80 and 70
same,MECHANICAL HVF,[7],50
same,MECHANICAL LVF,[7],0
same,MECHANICAL HVF,[8],100
same,MECHANICAL LVF,[8],50 and 60
same,MECHANICAL HVF,[9],100
same,MECHANICAL LVF,[9],60
same,MECHANICAL HVF,[10],100
same,MECHANICAL LVF,[10],60 and 70
same,MECHANICAL HVF,[11],100
same,MECHANICAL LVF,[11],70 and 60
same,MECHANICAL HVF,[12],100
same,MECHANICAL LVF,[12],30 and 40
same,MECHANICAL HVF,[13],50
same,MECHANICAL LVF,[13],0
same,MECHANICAL HVF,[14],100
same,MECHANICAL LVF,[14],40 and 70
same,MECHANICAL HVF,[15],100
same,MECHANICAL LVF,[15],70 and 80
same,MECHANICAL HVF,[16],100
same,MECHANICAL LVF,[16],80 and 70
same,MECHANICAL HVF,[17],80 and 90
same,MECHANICAL LVF,[17],50
same,MECHANICAL HVF,[18],80
same,MECHANICAL LVF,[18],20 and 30
same,MECHANICAL HVF,[19],50
same,MECHANICAL LVF,[19],0
same,MECHANICAL HVF,[20],100
same,MECHANICAL LVF,[20],40 and 60
same,MECHANICAL HVF,[21],100
same,MECHANICAL LVF,[21],70
same,MECHANICAL HVF,[22],90 and 70
same,MECHANICAL LVF,[22],60 and 50
same,MECHANICAL HVF,[23],80 and 70
same,MECHANICAL LVF,[23],30 and 40
same,MECHANICAL HVF,[24],80 and 50
same,MECHANICAL LVF,[24],20 and 10
same,MECHANICAL HVF,[25],60 and 50
same,MECHANICAL LVF,[25],0
same,MECHANICAL HVF,[26],100
same,MECHANICAL LVF,[26],70 and 60
same,MECHANICAL HVF,[27],100
same,MECHANICAL LVF,[27],70 and 60
same,MECHANICAL HVF,[28],100
same,MECHANICAL LVF,[28],80 and 90
same,MECHANICAL HVF,[29],100
same,MECHANICAL LVF,[29],80 and 90
same,MECHANICAL HVF,[30],100
same,MECHANICAL LVF,[30],90 and 80
same,MECHANICAL HVF,[31],50
same,MECHANICAL LVF,[31],0
same,MECHANICAL HVF,[32],100
same,MECHANICAL LVF,[32],60 and 70
same,MECHANICAL HVF,[33],100
same,MECHANICAL LVF,[33],60
same,MECHANICAL HVF,[34],100
same,MECHANICAL LVF,[34],60 and 70
same,MECHANICAL HVF,[35],100
same,MECHANICAL LVF,[35],70 and 60
same,MECHANICAL HVF,[36],100
same,MECHANICAL LVF,[36],70
same,MECHANICAL HVF,[37],50
same,MECHANICAL LVF,[37],0
same,MECHANICAL HVF,[38],100
same,MECHANICAL LVF,[38],40 and 50
same,MECHANICAL HVF,[39],100
same,MECHANICAL LVF,[39],80
same,MECHANICAL HVF,[40],100
same,MECHANICAL LVF,[40],70
same,MECHANICAL HVF,[41],100
same,MECHANICAL LVF,[41],70 and 60
same,MECHANICAL HVF,[42],100
same,MECHANICAL LVF,[42],60
same,MECHANICAL HVF,[43],50
same,MECHANICAL LVF,[43],0
same,MECHANICAL HVF,[44],100
same,MECHANICAL LVF,[44],60 and 50
same,MECHANICAL HVF,[45],100
same,MECHANICAL LVF,[45],70 and 60
same,MECHANICAL HVF,[46],100
same,MECHANICAL LVF,[46],60
same,MECHANICAL HVF,[47],100
same,MECHANICAL LVF,[47],70
same,MECHANICAL HVF,[48],100
same,MECHANICAL LVF,[48],50

# From paper PMC12259270, “Sensory neuron–expressed FGF13 controls nociceptive signaling in diabetic neuropathy models” (The Journal of Clinical Investigation, 2025)
